Patent US20100016247A1, “USING BUDDING YEAST TO SCREEN FOR INHIBITORS OF AURORA KINASES” (FLORIDA STATE UNIVERSITY RESEARCH FOUNDATION, priority 2008, published 2010)
Like-named read-outs stand apart in the source and are kept apart here.

Tests used:
[1] = system: phosphorylated histone H3 (Ser10) in A549 cells; test: Western blotting of phosphorylated histone H3 (Ser10); type: cell-based, human; conditions: 24 hr
Experimental: (§1) Cells are washed with cold PBS and whole-cell extracts are prepared with RIPA lysis buffer containing 60 μg/ml of PMSF. Equal amounts of protein (30 μg) are resolved with 15% SDS-PAGE. After transfer, the membranes are incubated overnight with primary antibodies (1:1000) against phosphorylated histone H3 (Ser10) (Cell Signaling Technology) and β-tubulin (Santa Cruz Biotechnology) at 4° C. The membranes are then incubated with HRP-conjugated goat anti-rabbit secondary antibody (Santa Cruz) at 1:200 followed by Chemiluminescence staining (Millipore).

[2] = system: ipl1-321 mutant yeast cells; test: Growth of ipl1-321 mutant yeast cultures by OD600; type: cell-based, Saccharomyces cerevisiae; conditions: 25° C.; for growth inhibition of ipl1-321 cells: 10 μg/ml, 24 hr, vs untreated control
Experimental: (§2) Wild-type and ipl1-321 mutant yeast strains are used for this purpose. […] After incubation at about 25° C. for about 24 hrs, the growth of the yeast cultures in the presence of tested compounds is determined by measuring OD600.

[3] = system: A549 cells; test: Hoechst 33342 staining, chromatin condensation and apoptotic body; type: cell-based, human; conditions: 5 μg/ml, 48 hours
Experimental: Hoechst 33342 is a fluorescence dye that can be embedded in DNA double helix and emit blue fluorescence when excited with UV light. Treated and untreated A549 cell samples with 5 μg/ml Jadomycin B for 48 hours are stained with 100 ng/ml Hoechst 33342 for 10 minutes in dark. Stained cells are visualized with a Nikon ECLIPSS TE2000-U fluorescence microscope (Japan) at 100× and 400× magnification. Apoptotic cells show brightly stained nuclei because of the chromosome condensation and the appeared apoptotic bodies.

[4] = system: wild-type yeast cells; test: Growth of wild-type yeast cultures by OD600; type: cell-based, Saccharomyces cerevisiae; conditions: 25° C.
Experimental: as §2

[5] = system: HepG2 cells; conditions: cited from earlier work
[6] = system: phosphorylated histone H3 (Ser10) in HepG2 cells; test: Western blotting of phosphorylated histone H3 (Ser10); type: cell-based, human; conditions: HepG2, 10 μg/ml, 24 hours
Experimental: as §1, with “A549 cells in the exponential growth phase are treated with 0, 1.25, 2.5, 5, 7.5, or 10 μg/ml Jadomycin B for 24 hours, while Hela and HepG2 cells are treated with 0 or 10 μg/ml of Jadomycin B. Cells” for “Cells”

[7] = system: phosphorylated histone H3 (Ser10) in Hela cells; test: as above; type: cell-based, human; conditions: 10 μg/ml, 24 hours
Experimental: as §1, with “A549 cells in the exponential growth phase are treated with 0, 1.25, 2.5, 5, 7.5, or 10 μg/ml Jadomycin B for 24 hours, while Hela and HepG2 cells are treated with 0 or 10 μg/ml of Jadomycin B. Cells” for “Cells”

[8] = system: IM9/Bcl-2 cells; conditions: cited from earlier work
[9] = molecular target: T1, purified recombinant human Aurora-B kinase (Homo sapiens, UniProt Q96GD4); test: In vitro Aurora-B kinase activity assay (ELISA kit); type: biochemical; conditions: for inhibitory effect on Aurora-B: same condition as FIG. 3A, data not shown
T1 construct: purchased Cell Signaling Technology
T1 sequence (Q96GD4 whole entry): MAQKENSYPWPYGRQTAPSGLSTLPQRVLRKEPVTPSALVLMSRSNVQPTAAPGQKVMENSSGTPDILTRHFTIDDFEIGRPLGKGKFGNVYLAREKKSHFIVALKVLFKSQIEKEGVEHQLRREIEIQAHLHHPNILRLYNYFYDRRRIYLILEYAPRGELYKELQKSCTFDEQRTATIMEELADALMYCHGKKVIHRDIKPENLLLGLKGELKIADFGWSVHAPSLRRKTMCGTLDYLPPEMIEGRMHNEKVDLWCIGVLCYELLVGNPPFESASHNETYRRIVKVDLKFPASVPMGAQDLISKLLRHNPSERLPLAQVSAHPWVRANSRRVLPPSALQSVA
Experimental: To determine the inhibition of Aurora-B kinase activity by Jadomycin B, an Aurora-B kinase activity assay kit (Cell Signaling Technology) is used according to the manufacturer's instruction. Briefly, 100 ng of purified recombinant human Aurora-B kinase is added to a 100 μl reaction mixture containing 1× kinase buffer and 25 μM cold ATP in the presence of different concentrations of Jadomycin B (ranging from 10^−4 M to 10^−10 M). After incubation at room temperature for 15 min, biotinylated peptide substrate (Cell Signaling Technology) is added to each reaction mixture at a final concentration of 1.5 μM, and the mixtures are further incubated for 30 min. A parallel control experiment is performed under the same conditions without Jadomycin B. The reaction is stopped by addition of 50 μM EDTA (pH 8). The 25 μl reaction mixture is then transferred to a streptavidin-coated 96-well plate (PerkinElmer, Inc) and incubated at room temperature for 60 min. After washing three times with PBS/T, the […] (Ser10) antibody (Cell Signaling Technology) is added to the plate for further incubation at 37° C. for 120 min. After washing, FITC-labeled secondary antibody (Santa Cruz) is added. After incubation at room temperature for 30 min, the plate is finally washed five times, and the fluorescence signal is determined with BMG Polarstar Galaxy (Germany) at 535 nm. The inhibition ratio by Jadomycin B at each concentration is calculated according to the following equation: % Inhibition=100×(1−countstreated/countscontrol). The inhibition curve is then fitted by Originpro7.5 program and the IC50 value of Jadomycin B is determined.
To determine the mode of inhibition of Aurora-B by Jadomycin B, the kinase activity is also examined in the presence of different concentrations of ATP (25, 50, 75, 100, and 200 μM). The inhibition ratio of Aurora-B kinase activity by Jadomycin B at various concentrations is calculated as described above and the inhibition curve is fitted. The IC50 value of Jadomycin B at each ATP concentration is then determined and a linear fit is made with all five IC50 values. The Ki is determined from the intercept of the plot of [ATP] versus IC50 values (IC50=Ki/Km[ATP]+Ki).

[10] = system: A549 cells; test: FACS analysis of apoptosis and cell cycle distribution; type: cell-based, human; conditions: 5 μg/ml
Experimental: A549 cells in exponential growth phase are treated with 0 or 5 μg/ml Jadomycin B for up to 48 hours. Cells collected at the indicated times are fixed and stained with Propidium Iodide (PI). FACS analysis is performed to determine the percentage of apoptotic cells and cell cycle distribution by using the EPICS XL flow cytometer and System II software.

[11] = system: H460 cells; conditions: cited from earlier work
[12] = system: MCF-7 cells; test: Cell growth assay (MTT, cell counting); type: cell-based, human; conditions: for growth inhibition by MTT assay: MCF-7, 48 hours
Experimental: (§3) A549, Hela and MCF-7 cell lines are cultured in 96-well tissue culture plates at a cell density of 5,000 cells per well in RPMI-I640 or MEM containing 10% fetus bovine serum and 2 mM L-glutamine. After attachment overnight, the medium is replaced and cells are incubated with increasing concentrations of Jadomycin B or its two derivatives, Jadomycin S and T (ranging from 10^−4 M to 10^−8 M). After treatment for 48 hours, 3-(4,5-dimethylthiazol-2-yl)-2,5-diphenyltetrazolium bromide (MTT) assays are carried out in triplication. The concentration-viability curves are fitted and IC50 values are determined. Cells are also plated at a cell density of 10,000 cells per well in six-well tissue culture plates. After attachment overnight, cells are treated with 0, 5, or 10 μg/ml Jadomycin B for 96 hours. Cells are detached every 24 hr by trypsinization to count the cell number. All experiments are repeated three times.

[13] = system: A549 cells; test: Cell growth assay (MTT, cell counting); type: cell-based, human; conditions: for growth inhibition by MTT assay: A549, 48 hours
Experimental: as §3

[14] = system: Hela cells; test: Cell growth assay (MTT, cell counting); type: cell-based, human; conditions: for growth inhibition by MTT assay: Hela, 48 hours
Experimental: as §3

[15] = system: IM-9 cells; conditions: cited from earlier work

With `CC[C@H](C)[C@H]1C(=O)O[C@H]2c3cc(C)cc(O)c3C3=C(C(=O)c4c(O[C@H]5C[C@@H](O)[C@@H](O)[C@H](C)O5)cccc4C3=O)N12` [Jadomycin B] the “reduction of H3 phosphorylation (grayscale scanning)” value ([1]; A549, 2 μg/ml) was 28%, the “phosphorylated histone H3 band on western blot” value ([1]; A549, 10 μg/ml) was “do not express any detectable phosphorylated histone H3” and the “reduction of H3 phosphorylation (grayscale scanning)” value ([1]; A549, 10 μg/ml) was 73%. The “growth inhibition of ipl1-321 mutant cells” value ([2]; 5 μg/ml, 24 hours) was 50%, the “growth inhibition of ipl1-321 cells” value [2] was “almost completely” and the “apoptosis by Hoechst 33342 staining” value [3] was “more and more cells underwent apoptosis”. The “growth inhibition of wild-type cells” value ([4]; 5 μg/ml, 24 hours) was “little growth inhibition”, the “growth inhibition of wild-type cells” value ([4]; 10 μg/ml, 24 hr) was “uninhibited” and the “growth inhibition of wild-type cells” value ([4]; 100 μg/ml, 24 hours) was 60%. For the same molecule, the inhibition of proliferation [5] was “inhibits the proliferation”, the “levels of phosphorylated histone H3” value [6] was “significant decrease” and the “levels of phosphorylated histone H3” value [7] was “significant decrease”. For the same molecule, the inhibition of proliferation [8] was “inhibits the proliferation”, the IC50 ([9]; 25 μM ATP, ATP titration FIG. 3B, read-out: IC50 for Aurora-B at given ATP concentration) was 12.5 µM and the IC50 ([9]; 25 μM ATP, fitted inhibition curve FIG. 3A, read-out: IC50 for inhibition of Aurora-B kinase activity) was 10.5 µM. It also gave an IC50 ([9]; 50 μM ATP, read-out: IC50 for Aurora-B at given ATP concentration) of 16.6 µM, an IC50 ([9]; 75 μM ATP, read-out: IC50 for Aurora-B at given ATP concentration) of 24.5 µM and an IC50 ([9]; 100 μM ATP, read-out: IC50 for Aurora-B at given ATP concentration) of 32.2 µM. For the same molecule, the IC50 ([9]; 200 μM ATP, read-out: IC50 for Aurora-B at given ATP concentration) was 53.1 µM, the Ki ([9]; from linear fit of IC50 versus [ATP]) was 6.8 µM and the “mode of inhibition of Aurora-B kinase” value ([9]; with respect to ATP, 5 ATP concentrations) was “competitive inhibition”. The “effect on cell cycle” value [10] was “does not block cell cycle”, the “increase of cells in S phase” value [10] was 2% and the “percentage of apoptotic cells, treated versus untreated” value ([10]; 3 hr) was “almost no difference”. The “portion of apoptotic cells (sub-G1)” value ([10]; 12 hr) was 17.8%, the “portion of apoptotic cells (sub-G1)” value ([10]; 24 hr) was 44% and the “portion of apoptotic cells (sub-G1)” value ([10]; 48 hr) was 71.7%. For the same molecule, the inhibition of proliferation [11] was “inhibits the proliferation”, the “growth curve, sensitivity of cell line” value ([12]; MCF-7, 0, 5 or 10 μg/ml, 96 hours, cell counting) was “sensitive” and the “growth curve, sensitivity of cell line” value ([13]; A549, 0, 5 or 10 μg/ml, 96 hours, cell counting) was “sensitive”. For the same molecule, the “growth inhibition by MTT assay” value [13] was “most sensitive”, the “growth curve, sensitivity of cell line” value ([14]; Hela, 0, 5 or 10 μg/ml, 96 hours, cell counting) was “sensitive” and the inhibition of proliferation [15] was “inhibits the proliferation”.

With `Cc1cc(O)c2c(c1)[C@@H]1OC(=O)[C@H]([C@H](C)O)N1C1=C2C(=O)c2cccc(O[C@H]3C[C@@H](O)[C@@H](O)[C@H](C)O3)c2C1=O` [Jadomycin T, reference compound] the “growth inhibition of ipl1-321 cells” value [2] was “neither shows inhibitory effect”, the “inhibitory effect on Aurora-B” value [9] was “no inhibitory activity is detected” and the “growth inhibition by MTT assay” value [12] was “inhibited growth”. For the same molecule, the “growth inhibition by MTT assay” value [13] was “inhibited growth” and the “growth inhibition by MTT assay” value [14] was “inhibited growth”.

In the case of `Cc1cc(O)c2c(c1)[C@@H]1OC(=O)[C@H](CO)N1C1=C2C(=O)c2cccc(O[C@H]3C[C@@H](O)[C@@H](O)[C@H](C)O3)c2C1=O` [Jadomycin S, reference compound], the “growth inhibition of ipl1-321 cells” value [2] is reported as “neither shows inhibitory effect”, the “inhibitory effect on Aurora-B” value [9] is reported as “no inhibitory activity is detected” and the “growth inhibition by MTT assay” value [12] is reported as “inhibited growth”. The “growth inhibition by MTT assay” value [13] was “inhibited growth” and the “growth inhibition by MTT assay” value [14] was “inhibited growth”.
